In patent US7067494B2, “Antimitotic eleuthesides” (The University of British Columbia, priority 2001, dated 2006):

Tested on: cells which regularly divide in culture (e.g. cancer cells)
Experiment: cell based antimitotic (mitotic arrest) assay using antibodies specific for mitotic cells
Conditions: cell based mitotic assay
Description: Methods suitable for assaying antimitotic activity of compounds of this invention or compounds used as precursors, may be based on the use of antibodies specific for mitotic cells, such as those described in the international patent application published Apr. 1, 1999 under WO 99/15157 or the assay described in WO 01/38339. Such an assay will typically employ cells which regularly divide in culture (e.g. cancer cells). A known antimitotic compound such as nocodazole may be used as a control. In the assay, determination of the cells which proceed to mitosis is carried out using any of the known immunological methods by employing antibodies which have specificity for mitotic cells. […] Other examples are the monoclonal antibodies recognizing phospho-epitopes in the paired helical filament proteins (PHF) found in brain tissue of patients suffering from Alzheiner's disease as described in: PCT International Application published Jul. 4, 1996 under No. WO 96/20218; and, Vincent et al. (1996) “The Journal of Cell Biology”, 132:413–425. TG-3 antibody described in the latter two references may be obtained from Albert Einstein College of Medicine of Yeshiva University, Bronx, N.Y. This antibody is highly specific for mitotic cells and functions in ELISA.
Immunological methods useful for determination of mitotic cells in an assay include any method for determining antibody-antigen binding, including: immunocytochemistry (e.g. immunofluorescence), flow cytometry, immunoblotting, and ELISA, including those described in Vincent, I. et al. [supra]. High throughput testing of samples may be readily achieved by use of the ELISA or the ELICA assays described in WO 01/38339.

Point of comparison: `CCO[C@]12C=C[C@](C)(O1)[C@@H](OC(=O)/C=C/c1cn(C)cn1)C[C@H]1C(CO)=CC[C@H](C(C)C)[C@H]1/C=C\2COC1OCC(O)C(O)C1OC(C)=O` (stereo partly drawn) [Compound 7, 17-hydroxyeleutheside], IC50 20 nM. Against it:
- 2′3′-dihdro-eleutherobin [Compound 10] — 1000-fold higher, 20000 nM
- CO[C@]12C=C[C@](C)(O1)[C@@H](OC(=O)/C=C/c1cn(C)cn1)C[C@H]1C(C)=CC[C@H](C(C)C)[C@H]1/C=C\2COC1OCC(O)C(O)C1OC(C)=O (stereo partly drawn) [eleutherobin, reference compound] — the same, 20 nM
- 5,6,11β,12-tetrahydro eleutherobin [Compound 9] — 10-fold higher, 200 nM
- CO[C@]12CC[C@](C)(O1)[C@@H](OC(=O)CCc1cn(C)cn1)C[C@@H]1[C@H](/C=C\2COC2OCC(O)C(O)C2OC(C)=O)[C@@H](C(C)C)CC[C@@H]1C (stereo partly drawn) [Compound 8, hexahydroeleutherobin] — higher, > 10000 nM

Same assay, conditions: compared with eleutherobin

`CO[C@]12CC[C@](C)(O1)[C@@H](OC(=O)CCc1cn(C)cn1)C[C@@H]1[C@H](/C=C\2COC2OCC(O)C(O)C2OC(C)=O)[C@@H](C(C)C)CC[C@@H]1C` (stereo partly drawn) [Compound 8, hexahydroeleutherobin] was tested, and the “antimitotic activity relative to eleutherobin (fold less active)” value was “more than five thousand fold less active than eleutherobin”.
